# Measured values as given in ChEMBL document CHEMBL5661967, “Antitumor activity of HKI-272, an orally active, irreversible inhibitor of the HER-2 tyrosine kinase” (Cancer Res, 2004).
# Calls of active or inactive are those of the source. No cut-off for these calls is given here.
# Tests used:
# [1] = target: Cyclin-dependent kinase 4/cyclin D1 (Homo sapiens, UniProt P11802); experiment: Inhibition of recombinant CDK4/cyclin D1 (unknown origin) using protein as substrate; assay type: protein-complex assay
# Sequence of Cyclin-dependent kinase 4/cyclin D1 (P11802 whole entry): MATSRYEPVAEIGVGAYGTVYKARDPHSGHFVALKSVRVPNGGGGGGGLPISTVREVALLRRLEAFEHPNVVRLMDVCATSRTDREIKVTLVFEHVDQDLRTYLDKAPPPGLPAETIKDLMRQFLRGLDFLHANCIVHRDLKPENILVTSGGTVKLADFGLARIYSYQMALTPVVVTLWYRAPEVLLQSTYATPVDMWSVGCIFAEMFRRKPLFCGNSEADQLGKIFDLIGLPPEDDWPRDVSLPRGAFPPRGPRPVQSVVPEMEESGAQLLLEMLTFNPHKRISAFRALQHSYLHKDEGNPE
# Sequence of Cyclin-dependent kinase 4/cyclin D1 (P24385 whole entry, further chain): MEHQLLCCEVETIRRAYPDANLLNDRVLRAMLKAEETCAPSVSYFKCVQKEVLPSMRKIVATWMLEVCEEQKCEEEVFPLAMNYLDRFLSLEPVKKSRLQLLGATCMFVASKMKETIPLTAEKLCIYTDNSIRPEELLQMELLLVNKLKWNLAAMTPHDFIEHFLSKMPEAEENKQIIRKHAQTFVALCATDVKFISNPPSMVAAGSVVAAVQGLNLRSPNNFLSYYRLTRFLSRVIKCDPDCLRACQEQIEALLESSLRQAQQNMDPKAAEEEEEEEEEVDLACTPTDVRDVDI
# [2] = target: Inhibitor of nuclear factor kappa-B kinase subunit beta (Homo sapiens, UniProt O14920); experiment: Inhibition of recombinant IKK-2 (unknown origin) using peptide as substrate
# Sequence of Inhibitor of nuclear factor kappa-B kinase subunit beta (O14920 whole entry): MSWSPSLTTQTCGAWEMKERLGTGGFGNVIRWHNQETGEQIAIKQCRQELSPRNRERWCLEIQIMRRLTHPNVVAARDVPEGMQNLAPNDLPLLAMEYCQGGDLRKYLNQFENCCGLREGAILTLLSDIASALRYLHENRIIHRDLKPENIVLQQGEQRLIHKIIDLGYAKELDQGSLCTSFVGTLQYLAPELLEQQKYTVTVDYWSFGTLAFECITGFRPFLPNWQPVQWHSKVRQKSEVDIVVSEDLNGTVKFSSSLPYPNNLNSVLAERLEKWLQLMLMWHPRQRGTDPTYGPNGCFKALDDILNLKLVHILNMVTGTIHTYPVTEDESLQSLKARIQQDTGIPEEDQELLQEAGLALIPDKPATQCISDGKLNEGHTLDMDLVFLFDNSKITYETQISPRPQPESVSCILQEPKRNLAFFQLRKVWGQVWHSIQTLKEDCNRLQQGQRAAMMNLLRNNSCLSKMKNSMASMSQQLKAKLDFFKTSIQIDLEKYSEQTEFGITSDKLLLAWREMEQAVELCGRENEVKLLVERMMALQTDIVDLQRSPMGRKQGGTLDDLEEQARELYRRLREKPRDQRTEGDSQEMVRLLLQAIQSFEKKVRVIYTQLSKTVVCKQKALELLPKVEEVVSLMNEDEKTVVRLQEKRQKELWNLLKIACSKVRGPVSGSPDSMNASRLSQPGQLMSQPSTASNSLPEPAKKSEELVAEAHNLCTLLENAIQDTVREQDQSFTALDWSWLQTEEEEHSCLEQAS
# [3] = target: Vascular endothelial growth factor receptor 2 (Homo sapiens, UniProt P35968); experiment: Inhibition of recombinant KDR (unknown origin) using poly[Glu:Tyr] (4:1) as substrate
# Sequence of Vascular endothelial growth factor receptor 2 (P35968 whole entry): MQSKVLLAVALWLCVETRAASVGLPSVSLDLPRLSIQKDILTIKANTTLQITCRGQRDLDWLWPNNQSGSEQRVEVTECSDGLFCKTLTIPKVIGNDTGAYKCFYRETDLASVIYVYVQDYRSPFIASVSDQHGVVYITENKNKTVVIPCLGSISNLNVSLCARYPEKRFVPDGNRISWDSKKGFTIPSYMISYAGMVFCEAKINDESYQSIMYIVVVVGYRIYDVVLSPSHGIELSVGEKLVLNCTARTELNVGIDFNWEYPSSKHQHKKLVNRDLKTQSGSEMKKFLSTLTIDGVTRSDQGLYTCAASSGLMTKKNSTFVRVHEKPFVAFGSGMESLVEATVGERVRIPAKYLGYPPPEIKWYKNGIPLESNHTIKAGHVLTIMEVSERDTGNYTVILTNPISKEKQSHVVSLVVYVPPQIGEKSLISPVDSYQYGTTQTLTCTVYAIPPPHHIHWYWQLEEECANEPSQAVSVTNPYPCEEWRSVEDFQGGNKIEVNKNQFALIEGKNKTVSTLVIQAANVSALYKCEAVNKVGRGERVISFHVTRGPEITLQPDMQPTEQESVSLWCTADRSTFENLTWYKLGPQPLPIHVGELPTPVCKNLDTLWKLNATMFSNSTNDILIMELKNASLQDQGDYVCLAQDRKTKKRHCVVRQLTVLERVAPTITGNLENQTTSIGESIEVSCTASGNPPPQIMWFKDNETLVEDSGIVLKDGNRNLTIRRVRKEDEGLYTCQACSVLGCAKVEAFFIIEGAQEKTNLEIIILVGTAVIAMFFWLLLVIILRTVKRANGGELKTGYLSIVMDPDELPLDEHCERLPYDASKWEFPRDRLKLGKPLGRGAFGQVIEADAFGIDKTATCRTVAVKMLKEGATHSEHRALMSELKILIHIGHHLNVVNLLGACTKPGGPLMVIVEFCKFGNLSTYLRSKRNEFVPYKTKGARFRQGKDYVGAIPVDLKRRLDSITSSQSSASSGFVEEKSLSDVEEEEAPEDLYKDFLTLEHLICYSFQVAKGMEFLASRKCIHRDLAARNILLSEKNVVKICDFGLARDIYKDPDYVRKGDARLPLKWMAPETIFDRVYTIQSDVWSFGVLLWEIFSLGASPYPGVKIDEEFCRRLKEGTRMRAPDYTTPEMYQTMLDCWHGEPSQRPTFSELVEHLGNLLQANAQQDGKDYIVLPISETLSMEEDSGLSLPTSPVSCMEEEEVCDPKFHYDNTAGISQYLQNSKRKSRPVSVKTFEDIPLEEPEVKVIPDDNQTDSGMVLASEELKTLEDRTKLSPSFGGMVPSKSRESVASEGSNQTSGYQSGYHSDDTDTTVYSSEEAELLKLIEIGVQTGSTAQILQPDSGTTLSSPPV
# [4] = target: RAF proto-oncogene serine/threonine-protein kinase (Homo sapiens, UniProt P04049); experiment: Inhibition of recombinant c-Raf (unknown origin) using protein as substrate
# Sequence of RAF proto-oncogene serine/threonine-protein kinase (P04049 whole entry): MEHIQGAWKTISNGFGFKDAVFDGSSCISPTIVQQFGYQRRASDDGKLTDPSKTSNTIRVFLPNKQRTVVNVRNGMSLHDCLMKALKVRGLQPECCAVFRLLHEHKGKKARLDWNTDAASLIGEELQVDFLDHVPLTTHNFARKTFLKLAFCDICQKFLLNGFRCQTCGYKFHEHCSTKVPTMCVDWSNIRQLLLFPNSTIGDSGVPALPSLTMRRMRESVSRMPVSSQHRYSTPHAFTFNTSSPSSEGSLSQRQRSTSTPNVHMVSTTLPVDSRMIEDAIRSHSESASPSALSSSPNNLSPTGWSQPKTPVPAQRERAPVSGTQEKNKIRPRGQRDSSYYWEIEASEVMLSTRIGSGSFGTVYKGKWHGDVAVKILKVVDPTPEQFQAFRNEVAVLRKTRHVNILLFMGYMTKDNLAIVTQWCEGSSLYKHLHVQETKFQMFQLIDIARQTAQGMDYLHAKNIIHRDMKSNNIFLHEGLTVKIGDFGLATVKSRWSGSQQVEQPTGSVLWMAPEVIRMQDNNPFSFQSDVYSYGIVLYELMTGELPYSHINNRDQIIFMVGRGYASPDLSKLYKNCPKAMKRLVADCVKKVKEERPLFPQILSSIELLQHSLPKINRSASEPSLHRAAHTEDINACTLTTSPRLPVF
# NIH3T3 [5] = experiment: Antiproliferative activity against mouse 3T3 cells transfected with HER-2 oncogene measured after 2 days by sulforhodamine B assay; assay type: functional, cell-based; settings: NIH3T3, 48 h
# SK-BR-3 = experiment: Antiproliferative activity against human SK-BR-3 cells measured after 2 days by sulforhodamine B assay; assay type: functional, cell-based; settings: SK-BR-3, 48 h
# MDA-MB-435 = experiment: Antiproliferative activity against human MDA-MB-435 cells measured after 2 days by sulforhodamine B assay; assay type: functional, cell-based; settings: MDA-MB-435, 48 h
# [6] = target: Retinoblastoma-associated protein (Homo sapiens) (UniProt P06400); experiment: Inhibition of Rb phosphorylation in human BT-474 cells at 1 to 10 nM incubated for 12 to 16 hrs by Western blot analysis; assay type: cell-based; settings: dose 1-10 nM, time 12-16 hrs
# Sequence of Retinoblastoma-associated protein (Homo sapiens) (P06400 whole entry): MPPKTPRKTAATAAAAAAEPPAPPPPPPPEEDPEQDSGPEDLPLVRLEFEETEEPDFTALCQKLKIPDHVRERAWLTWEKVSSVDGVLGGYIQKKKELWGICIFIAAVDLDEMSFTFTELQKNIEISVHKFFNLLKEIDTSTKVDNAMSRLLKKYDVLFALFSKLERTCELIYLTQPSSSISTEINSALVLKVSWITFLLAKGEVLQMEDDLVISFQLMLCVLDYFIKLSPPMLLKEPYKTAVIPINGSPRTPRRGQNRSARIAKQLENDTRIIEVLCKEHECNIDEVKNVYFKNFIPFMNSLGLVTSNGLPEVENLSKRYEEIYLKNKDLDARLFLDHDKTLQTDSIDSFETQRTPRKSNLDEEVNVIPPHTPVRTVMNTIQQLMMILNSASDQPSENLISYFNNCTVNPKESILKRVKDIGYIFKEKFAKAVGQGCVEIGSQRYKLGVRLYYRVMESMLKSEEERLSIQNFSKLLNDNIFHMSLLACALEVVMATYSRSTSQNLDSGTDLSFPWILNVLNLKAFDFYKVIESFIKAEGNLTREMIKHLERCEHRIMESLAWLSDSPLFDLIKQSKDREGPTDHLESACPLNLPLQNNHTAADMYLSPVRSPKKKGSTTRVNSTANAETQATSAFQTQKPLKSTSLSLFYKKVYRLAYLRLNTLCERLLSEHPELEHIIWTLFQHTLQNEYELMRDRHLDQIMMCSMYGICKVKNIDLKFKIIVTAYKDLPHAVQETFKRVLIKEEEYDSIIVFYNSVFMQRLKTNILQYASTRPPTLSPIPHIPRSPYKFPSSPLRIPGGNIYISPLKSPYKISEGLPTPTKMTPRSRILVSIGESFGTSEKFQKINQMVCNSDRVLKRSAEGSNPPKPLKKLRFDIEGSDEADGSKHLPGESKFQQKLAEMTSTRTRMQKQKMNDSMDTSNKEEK
# BT-474 [7] = experiment: Cell cycle arrest in human BT-474 cells assessed as accumulation of cells at Sub-G1 phase at 0.4 nM measured after 12 to 16 hrs by propidium iodide staining based flow cytometry (reference value: 8%); assay type: functional; settings: time 12-16 hrs
# BT-474 [8] = experiment: Cell cycle arrest in human BT-474 cells assessed as accumulation of cells at Sub-G1 phase at 1 nM measured after 12 to 16 hrs by propidium iodide staining based flow cytometry (reference value: 8%); assay type: functional; settings: time 12-16 hrs
# BT-474 [9] = experiment: Cell cycle arrest in human BT-474 cells assessed as accumulation of cells at G0-G1 phase at 0.4 nM measured after 12 to 16 hrs by propidium iodide staining based flow cytometry (reference value: 61%); assay type: functional; settings: time 12-16 hrs
# BT-474 [10] = experiment: Cell cycle arrest in human BT-474 cells assessed as accumulation of cells at G0-G1 phase at 1 nM measured after 12 to 16 hrs by propidium iodide staining based flow cytometry (reference value: 61%); assay type: functional; settings: time 12-16 hrs
# BT-474 [11] = experiment: Cell cycle arrest in human BT-474 cells assessed as accumulation of cells at G0-G1 phase at 2 nM measured after 12 to 16 hrs by propidium iodide staining based flow cytometry (reference value: 61%); assay type: functional; settings: time 12-16 hrs
# BT-474 [12] = experiment: Cell cycle arrest in human BT-474 cells assessed as accumulation of cells at S phase at 2 nM measured after 12 to 16 hrs by propidium iodide staining based flow cytometry (reference value: 21%); assay type: functional; settings: time 12-16 hrs
# BT-474 [13] = experiment: Cell cycle arrest in human BT-474 cells assessed as accumulation of cells at S phase at 0.2 nM measured after 12 to 16 hrs by BrdUrd uptake assay (reference value: 26%); assay type: functional; settings: time 12-16 hrs
# BT-474 [14] = experiment: Cell cycle arrest in human BT-474 cells assessed as accumulation of cells at S phase at 2 nM measured after 12 to 16 hrs by BrdUrd uptake assay (reference value: 26%); assay type: functional; settings: time 12-16 hrs
# BT-474 [15] = experiment: Cell cycle arrest in human BT-474 cells assessed as accumulation of cells at G2/M phase at 0.4 nM measured after 12 to 16 hrs by propidium iodide staining based flow cytometry (reference value: 11%); assay type: functional; settings: time 12-16 hrs
# NIH3T3 [16] = experiment: Antitumor activity against mouse 3T3 cells transfected with HER-2 oncogene implanted in athymic nude mouse assessed as tumor growth inhibition at 20 mg/kg, po administered daily for 10 days via gavage and measured on day 21 relative to control; assay type: functional; settings: NIH3T3, 504 h, time 21 day, read-out: TGI
# NIH3T3 [17] = experiment: Antitumor activity against mouse 3T3 cells transfected with HER-2 oncogene implanted in athymic nude mouse assessed as tumor growth inhibition at 80 mg/kg, po administered daily for 10 days via gavage and measured on day 21 relative to control; assay type: functional; settings: NIH3T3, 504 h, time 21 day, read-out: TGI
# NIH3T3 [18] = experiment: Antitumor activity against mouse 3T3 cells transfected with HER-2 oncogene implanted in athymic nude mouse assessed as tumor growth inhibition at 10 mg/kg, po administered daily for 10 days via gavage and measured on day 14 relative to control; assay type: functional; settings: NIH3T3, 336 h, time 14 day, read-out: TGI
# BT-474 [19] = experiment: Antitumor activity against human BT-474 cells xenografted in athymic nude mouse assessed as tumor growth inhibition at 10 mg/kg, po administered daily for 20 days via gavage and measured on day 28 relative to control; assay type: functional; settings: BT-474, 672 h, time 28 day, read-out: TGI
# BT-474 [20] = experiment: Antitumor activity against human BT-474 cells xenografted in athymic nude mouse assessed as tumor growth inhibition at 40 mg/kg, po administered daily for 20 days via gavage and measured on day 28 relative to control; assay type: functional; settings: BT-474, 672 h, time 28 day, read-out: TGI
# [21] = In vivo inhibition of HER2 autophosphorylation in human BT-474 cells xenografted athymic nude mouse at 40 mg/kg, po administered as single dose via gavage measured after 1 hr by immunoblot analysis relative to control; assay type: functional
# [22] = In vivo inhibition of HER2 autophosphorylation in human BT-474 cells xenografted athymic nude mouse at 40 mg/kg, po administered as single dose via gavage measured after 6 hrs by immunoblot analysis relative to control; assay type: functional
# SK-OV-3 [23] = experiment: Antitumor activity against human SK-OV-3 cells xenografted in po dosed athymic nude mouse assessed as tumor growth inhibition administered daily for 20 days via gavage and measured on day 21; assay type: functional, organism-based; settings: dose 10-60 mg/kg, time 21.0 day
# SK-OV-3 [24] = experiment: Antitumor activity against human SK-OV-3 cells xenografted in athymic nude mouse assessed as tumor growth inhibition at 60 mg/kg, po administered daily for 20 days via gavage and measured on day 21 relative to control; assay type: functional; settings: SK-OV-3, 504 h, time 21 day, read-out: TGI
# A-431 = experiment: Antitumor activity against human A-431 cells xenografted in athymic nude mouse assessed as tumor growth inhibition at 60 mg/kg, po administered daily for 10 days via gavage and measured on day 15 relative to control; assay type: functional; settings: A-431, 360 h, time 15 day, read-out: TGI
# [25] = Terminal half life in nude mouse at 20 mg/kg, po administered as single dose; assay type: ADME, organism-based; settings: in vivo, read-out: beta t1/2 (converted)
# [26] = Toxicity in human SK-OV-3 cells xenografted athymic nude mouse assessed as body weight loss at 10 to 60 mg/kg, po administered daily via gavage for 20 days; assay type: organism-based; settings: in vivo, 480 h, dose 10-60 mg/kg, time 20 day
# [27] = Toxicity in mouse 3T3 cells transfected with HER-2 oncogene implanted athymic nude mouse at 20 to 80 mg/kg, po administered daily for 10 days; assay type: organism-based, NIH3T3; settings: in vivo, 240 h, dose 20-80 mg/kg, time 10 day
# [28] = Toxicity in human BT-474 cells xenografted athymic nude mouse at 10 to 40 mg/kg, po administered daily via gavage for 20 days; assay type: organism-based; settings: in vivo, 480 h, dose 10-40 mg/kg, time 20 day
# [29] = Toxicity in human SK-OV-3 cells xenografted athymic nude mouse at 10 to 60 mg/kg, po administered daily via gavage for 20 days; assay type: organism-based; settings: in vivo, 480 h, dose 10-60 mg/kg, time 20 day
smiles,measurement,setting,value
COc1cc2ncc(C#N)c(Nc3ccc(OCc4ccccn4)c(Cl)c3)c2cc1NC(=O)/C=C/CN(C)C,IC50,[1],> 50000 nM
same,IC50,[2],> 9000 nM
same,IC50,[3],800 nM
same,IC50,[4],> 18000 nM
same,IC50,NIH3T3 [5],3 nM
same,IC50,SK-BR-3,2 nM
same,IC50,MDA-MB-435,960 nM
same,inhibition,[6],Active
same,Activity,BT-474 [7],11%
same,Activity,BT-474 [8],7%
same,Activity,BT-474 [9],65%
same,Activity,BT-474 [10],69%
same,Activity,BT-474 [11],66%
same,Activity,BT-474 [12],12%
same,Activity,BT-474 [13],18%
same,Activity,BT-474 [14],10%
same,Activity,BT-474 [15],13%
same,inhibition in vivo at 20 mg/kg,NIH3T3 [16],53%
same,inhibition in vivo at 80 mg/kg,NIH3T3 [17],98%
same,inhibition in vivo at 10 mg/kg,NIH3T3 [18],34%
same,inhibition in vivo at 10 mg/kg,BT-474 [19],67%
same,inhibition in vivo at 40 mg/kg,BT-474 [20],93%
same,inhibition in vivo at 40 mg/kg,[21],84%
same,inhibition in vivo at 40 mg/kg,[22],97%
same,TGI,SK-OV-3 [23],Dose-Dependent Effect
same,inhibition in vivo at 60 mg/kg,SK-OV-3 [24],85%
same,inhibition in vivo at 60 mg/kg,A-431,76%
same,half-life,[25],~4 h
same,Activity,[26],Non-Toxic
same,Activity,[27],Non-Toxic
same,Activity,[28],Non-Toxic
same,Activity,[29],Non-Toxic
